Usually LC50 stands for the concentration that kills 50% of the test population. High values mean a less lethal substance, low ones a more lethal substance. The Ki is the dissociation constant of the complex between target and ligand, obtained from inhibition or displacement.

Entries after “also recorded” stand apart in the source; their conditions may differ. Like-named read-outs stand apart in the source and are kept apart here.

Data set [1] relates to HCT116 cells. Nature of the data set: clonogenic assay, HCT116. In kind it is cell-based, human. Particulars: HCT116, normoxia or anoxia, tested concentrations (10 to 100 μM), 30 min exposure. On the procedure: (§1) Human colorectal HCT116 and HT29 carcinoma cells were cultured in Dulbecco’s Modified Eagle Medium (DMEM, Lonza) supplemented with 10% fetal bovine serum and 1% PenStrep. Cells were exposed to anoxic conditions for 24 h in a hypoxic chamber (MACS VA500 microaerophilic workstation, Don Whitley Scientific, Bingley, UK) with an atmosphere consisting of ≤0.02% O2, 5% CO2 and residual N2. Normoxic cells were grown in regular incubators with 21% O2, 5% CO2 at 37 °C.
(§2) Clonogenic survival HT29 and HCT116 cells were seeded with a high density for CA IX-dependent extracellular acidification. […] These cells were exposed to 23:30 h normoxic or anoxic conditions and 30 min to drugs after which cells were trypsinized and reseeded in triplicate with known cell numbers. Cells were allowed to grow for 9 (HCT116) and 14 (HT29) days to form colonies that were quantified after staining and fixation with 0.4% methylene blue in 70% ethanol. Surviving fractions were calculated and compared to control survival curves produced in the same experiment without compound treatment.

The test system of data set [2] is zebrafish larvae. Kind of data set: swim pattern analysis of zebrafish larvae. In kind it is in vivo. The conditions noted are these: 160 µM (concentration that did not induce phenotypic defects), end of 5 days of exposure. The protocol:
The swim pattern of the zebrafish larvae was studied after 5 days of exposure to these compounds. For the analyses of swim pattern, about 15–20 zebrafish larvae after 5 days of exposure to the compounds were placed in a 35 mm × 15 mm petri dish containing embryonic medium, and the larvae were allowed to settle in the petri dish for 1 min. The movement of the zebrafish larvae was observed under the microscope for 1 min. […] The swim patterns were compared with the control group zebrafish larvae that were not treated with any inhibitor.

Data set [3] relates to HT29 cells. Kind of data set: alamarBlue cell viability assay, HT29. In kind it is cell-based, human. Particulars: for IC50: Homo sapiens, HT-29. The protocol: as §1
(§3) The cytotoxic efficacy of the bio-reducible derivatives was determined based on cell viability assays using alamarBlue® (Invitrogen). In short, HT29 and HCT116 were seeded in 96-well plates and allowed to attach overnight. On the following day, the plates were exposed to normoxia or anoxia and medium was replaced with pre-incubated normoxic or anoxic DMEM. Compounds were dissolved in DMSO (0.5%, Sigma-Aldrich) and final concentrations were made with pre-incubated anoxic or normoxic DMEM and added to the wells after 24 h of exposure. Cells were exposed to compounds for a total of 2 h, after which the medium was washed off and replaced with fresh medium. Cells were allowed to grow for an additional 72 h under normoxic conditions prior to measurement. Cells were incubated with alamarBlue® for 2 h during normoxic conditions, which corresponds with their metabolic function, a measure for cell viability. Fluorescence was measured using plate reader (FLUOstar Omega, BMG LABTECH, Ortenberg, Germany) using a fluorescence excitation wavelength of 540–580 nm.
(§4) GraphPad Prism (version 5.03, GraphPad Software, San Diego, CA, USA) was used for all statistical analyses. For the cytotoxic compounds, IC50 values were estimated with the curve of the log (inhibitor) vs. normalized response (Variable slope).
Background: The colour change of resazurin is a common sign of viable cells or microbes.

The next data set deals with zebrafish embryos. Nature of the data set: zebrafish embryo lethality (LC50). In kind it is in vivo. Particulars: 1 mM, end of 5 days of exposure. The protocol:
(§5) The hypoxia-activated prodrugs were screened for their toxicity using 24-h post-fertilization zebrafish embryos as described earlier. The compounds were either dissolved in Embryonic medium (5.0 mM NaCl, 0.17 mM KCl, 0.33 mM CaCl2, 0.33 mM MgSO4, and 0.1% w/v Methylene Blue (Sigma-Aldrich, Darmstadt, Germany) or in dimethyl sulfoxide (DMSO) (Sigma-Aldrich, St. Louis, MO, USA) to prepare 100 mM stock solutions. Before the start of each experiment, the series of dilutions were made from the above stock in the embryonic medium.
(§6) The wild-type adult zebrafish (AB strains) were maintained at 28.5 °C in an incubator [35]. In each breeding tank, about embryos 3–5 pairs of male and female fish were set up overnight for collecting the embryos. The following morning, 1–2-h post-fertilization (hpf) embryos were collected in a sieve and rinsed with embryonic medium and kept the collected embryos in an incubator at 28.5 °C overnight. The toxicity evaluation studies of the compounds were performed using the fish that were 24-hpf. All the zebrafish experiments were performed at the zebrafish core facility, Tampere University, Finland, and according to the protocol used in our laboratory.
(§7) The LC50 values for all the three prodrugs were determined using 24-hpf embryos using […] different concentrations for each compound. We used a minimum of 30 zebrafish larvae for each concentration of the compound [28, 30, 36, 42]. The 24-hpf larvae were exposed to different concentrations of the inhibitors that ranged from 20 μM to […]. A dose response curve (DRC) was calculated using the DRM (model fitting function) of the DRC R package. The control group constituted an equal number of larvae not treated with any compound and the larvae that were treated with 1% DMSO. Toxicological evaluation studies were performed in 24-well plates (Corning V R Costar V R cell culture plates). In each well, we placed 1–2 24-hpf embryos in 1 mL of embryonic medium containing a diluted inhibitor. For control groups, 1% DMSO diluted in either embryonic medium or embryonic medium with no chemical compound. A minimum of three sets of experiments were carried out for each prodrug. The mortality of the larvae was checked every 24 h until 5 days after exposure to the prodrugs.

Data set [4] can be described thus: zebrafish embryo lethality (LC50). In kind it is in vivo. Particulars: AB, zebrafish, in vivo, zebrafish embryos from 24 hpf, end of 5 days of exposure. The protocol:
as §5, §6, §7

A further data set has as its target hCA I (Homo sapiens, UniProt P00915). Nature of the data set: stopped flow CO2 hydrase assay, hCA I. The conditions noted are these: KI hCA I, mean from 3 different assays.
Data set [5] concerns zebrafish larvae. Kind of data set: phenotypic analysis of zebrafish larvae. In kind it is in vivo. On the procedure:
as §5, §6
After exposure to the prodrugs, we evaluated the effects of these compound on the zebrafish larvae by analyzing the following eight phenotypic parameters: (1) mortality, (2) hatching (3) edema (4) swimming pattern, (5) yolk sack utilization, (6) heartbeat, (7) body shape, and (8) swim bladder development. The images of the developing larvae were taken using a Lumar V1.12 fluorescence microscope (Carl Zeiss MicroImaging GmbH, Göttingen, Germany) attached to a camera with a 1.5 lens (Carl Zeiss MicroImaging GmbH, Göttingen, Germany). The images were analyzed with AxioVision software versions 4.7 and 4.8 as described in our standard protocol for the assessment of the toxicity and safety of chemical compounds.

Data set [6] deals with HT29 cells. Nature of the data set: clonogenic assay, HT29. In kind it is cell-based, human. Particulars: HT29, normoxia or anoxia, tested concentrations (10 to 100 μM), 30 min exposure. The protocol:
as §1, §2

The target in another data set is hCA IX (Homo sapiens, UniProt Q16790). Kind of data set: stopped flow CO2 hydrase assay, hCA IX.
Data set [7] deals with HCT116 cells. Kind of data set: alamarBlue cell viability assay, HCT116. In kind it is cell-based, human. The conditions noted are these: 2 h exposure, 72 h regrowth. On the procedure: as §1, §3, §4
The target in another data set is hCA II (Homo sapiens, UniProt P00918). Kind of data set: stopped flow CO2 hydrase assay, hCA II.

Sequence of hCA I (P00915 whole entry): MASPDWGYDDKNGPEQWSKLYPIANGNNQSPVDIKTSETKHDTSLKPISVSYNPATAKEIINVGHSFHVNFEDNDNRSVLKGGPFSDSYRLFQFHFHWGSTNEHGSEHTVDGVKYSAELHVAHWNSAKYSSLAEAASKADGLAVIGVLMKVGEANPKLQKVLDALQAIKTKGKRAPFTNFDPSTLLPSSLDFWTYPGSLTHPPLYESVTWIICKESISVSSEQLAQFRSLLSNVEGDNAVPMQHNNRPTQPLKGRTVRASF
Description for hCA II: (§8) An Sx.18Mv-R Applied Photophysics (Oxford, UK) stopped-flow instrument was used for assaying the CA catalyzed CO2 hydration activity. […] In particular, CO2 was bubbled in distilled deionized water for 30 min so that the water was saturated (the concentration at a specific temperature is known from literature). In addition, a CO2 assay kit (from Merck, Darmstadt, Germany) was used to measure the concentration in variously diluted solutions obtained from the saturated one (which was kept at the same temperature and a constant bubbling during the experiments). […] The uncatalyzed rates were determined in the same manner and subtracted from the total observed rates. Stock solutions of inhibitor (0.1 mM) were prepared in distilled deionized water and dilutions up to 0.01 nM were done thereafter with distilled deionized water. Inhibitor and enzyme solutions were pre-incubated together for 15 min–2 h (or longer, i.e., 4–6 h) at room temperature (at 4 °C for the incubation periods longer than 15 min) prior to assay, in order to allow for the formation of the EI complex. The inhibition constants were obtained by non-linear least-squares methods using PRISM 3 and the Cheng–Prusoff equation, as reported earlier [38, 39], and represent the mean from at least three different determinations. hCA I was purchased by Merck (Darmstadt, Germany) and used without further purification, whereas all the other hCA isoforms were recombinant ones obtained in-house as reported earlier [40].
Description for hCA IX: as §8

In the case of `Cn1c(COC(=O)NCCc2ccc(S(N)(=O)=O)cc2)cnc1[N+](=O)[O-]` [Compound 1b, (1-methyl-2-nitro-1H-imidazol-5-yl) methyl (4-sulfamoylphenethyl) carbamate], the clonogenic cell survival result in the data set with HCT116 cells [1] and with HT29 cells [6] was “did not reduce clonogenic cell survival” each time. The swim pattern entry in the data set with zebrafish larvae [2] is on record as “did not induce phonotypic abnormalities in the larvae as well as abnormal or ataxic swim movement”. In the data set on HT29 cells [3] (HT29, hypoxia selectivity cytotoxicity ratio), the “HCR (IC50N/IC50A)” value is on record as greater than 2.44. The IC50N result with HT29 cells [3] (HT29, normoxia, 2 h exposure, 72 h regrowth) is listed as “no detectable cytotoxicity”. The IC50 in the data set on HT29 cells [3] (HT29, anoxia, 2 h exposure, 72 h regrowth, read-out: IC50A) is 204 µM; in the data set on HT29 cells [3] (HT29, normoxia, 2 h exposure, 72 h regrowth, read-out: IC50N) it was greater than 500 µM; in the data set on HCT116 cells [7] (HCT116, anoxia, read-out: IC50A) it was 59.4 µM; in the data set with HCT116 cells [7] (Homo sapiens, HCT-116, HCT116, anoxia, read-out: IC50A), 59.3 µM; in the data set with HCT116 cells [7] (Homo sapiens, HCT-116, HCT116, normoxia, read-out: IC50N), 149 µM. In addition, the “mortality of the larvae” value with zebrafish embryos is “did not cause any mortality; also recorded: no mortality observed”. This molecule also displayed an LC50 in data set [4] of roughly 1400 µM. For the same molecule, the Ki at hCA I is 0.167 µM; at hCA IX it was 0.0076 µM; at hCA II, 0.0306 µM. In addition, in the data set on zebrafish larvae [5] (20 μM–2 mM, 5 days post exposure), the “adverse effects on observable phenotypic parameters of the larvae” value is “minimal or no adverse effects”. In addition, the swim bladder development result in the data set with zebrafish larvae [5] (1000 μM, at 5 days) is recorded as “absence of a swim bladder”. Moreover, in the data set with zebrafish larvae [5] (zebrafish larvae, 1 mM), the phenotypic abnormalities entry is “no or minimal phenotypic abnormalities”.

The values above are taken from article PMC7287649, “Hypoxia-Activated Prodrug Derivatives of Carbonic Anhydrase Inhibitors in Benzenesulfonamide Series: Synthesis and Biological Evaluation” (Molecules, 2020).
